One assay deals with S. aureus. Description: MIC by broth dilution, S. aureus. Type of assay: cell-based. The conditions noted are these: Staphylococcus aureus; Mueller-Hinton broth, overnight 37° C.; Table 1; read-out: MIC (μg/mL) S. aureus. As for the experimental part: (§1) The antibacterial efficacy of the ammonium compounds was assessed. Minimum inhibitory concentrations (MICs) were determined by broth dilution method. Dilutions of each compound, ranging from 1 μg/mL to 256 μg/mL (final concentrations) were prepared in Mueller-Hinton broth. Compound dilutions were added to wells of a 96-well plate, with the concentration of the compound increasing 2-fold by row. Each well contained 5×10^5 CFU/ml of target bacterium in a total volume of 100 μl. Plates were incubated overnight at 37° C. The following day, plates were evaluated for a visual change in growth to determine the MIC. The concentration value corresponding to the first row that no longer had visible bacterial growth, as evaluated by turbidity in the wells, was recorded as the MIC. MIC values were representative of at least biological duplicates, each made up of technical triplicates. The antibacterial efficacy of ammonium compounds in the presence of human plasma was assessed. Minimum inhibitory concentrations (MICs) were determined by broth dilution method. Dilutions of each compound, ranging from 1 μg/mL to 256 μg/mL (final concentrations) were prepared in Mueller-Hinton broth. For the plasma containing samples, compound dilutions were made in Mueller-Hinton broth and supplemented with 5% (final %) human plasma (esterases). Compound dilutions were added to wells of a 96-well plate, with the concentration of the compound increasing 2-fold by row. Each well contained 5×10^5 CFU/mL of target bacterium in a total volume of 100 μL. Plates were incubated overnight at 37° C. The following day, plates were evaluated for a visual change in growth to determine the MIC. The concentration value corresponding to the first row that no longer had visible bacterial growth, as evaluated by turbidity in the wells, was recorded as the MIC. MIC values were representative of at least biological duplicates, each made up of technical triplicates.
(In broth dilution the organism is exposed to a series of concentrations in liquid medium.)

The next assay concerns A. baumannii. Description: MIC by broth dilution, A. baumannii. Type of assay: cell-based. Particulars: Acinetobacter baumannii; Mueller-Hinton broth, overnight 37° C.; Table 1; read-out: MIC (μg/mL) A. baumannii. As for the experimental part: as §1

Structures are written as SMILES.

For `CCCCCCCCOc1ccccc1C(=O)Nc1ccc(C(=O)OCC[N+](C)(CC)CC)cc1.[Br-]` [Compound 10, N,N-diethyl-N-methyl-2-((4-(2-(octyloxy)benzamido)benzoyl)oxy)ethan-1-aminium bromide, reference compound], the MIC in the assay with S. aureus and in the assay with A. baumannii was 3 to 30 µg/mL each time.

As to `CCCCCCCCOc1ccccc1C(=O)Nc1cccc(C(=O)OCC[N+](C)(CC)CC)c1.[Br-]` [Compound 12, N,N-Diethyl-N-methyl-2-((3-(2-(octyloxy)benzamido)benzoyl)oxy)ethan-1-aminium bromide], the MIC in the assay with S. aureus is 3 to 30 µg/mL; with A. baumannii it was over 30 µg/mL.

`CCCCCCCCOc1ccccc1C(=O)Nc1ccccc1C(=O)OCC[N+](C)(CC)CC.[Br-]` [Compound 13, N,N-Diethyl-N-methyl-2-((2-(2-(octyloxy)benzamido)benzoyl)oxy)ethan-1-aminium bromide]: the MIC was 3 to 30 µg/mL in the assay on S. aureus and over 30 µg/mL with A. baumannii.

For `CCCCCCCCOc1cccc(C(=O)Nc2ccc(C(=O)OCC[N+](C)(CC)CC)cc2)c1OCCCCCCCC.[Br-]` [Compound 14, 2-((4-(2,3-Bis(octyloxy)benzamido)benzoyl)oxy)-N,N-diethyl-N-methylethan-1-aminium bromide], the MIC in the assay on S. aureus and in the assay on A. baumannii was over 30 µg/mL throughout.

Consider `CCCCCCCCOc1ccc(C(=O)Nc2ccc(C(=O)OCC[N+](C)(CC)CC)cc2)c(OCCCCCCCC)c1.[Br-]` [Compound 15, 2-((4-(2,4-Bis(octyloxy)benzamido)benzoyl)oxy)-N,N-diethyl-N-methylethan-1-aminium bromide], for which the MIC in the assay on S. aureus and with A. baumannii was over 30 µg/mL in each case.

For the compound `CCCCCCCCOc1ccc(OCCCCCCCC)c(C(=O)Nc2ccc(C(=O)OCC[N+](C)(CC)CC)cc2)c1.[Br-]` [Compound 16, 2-((4-(2,5-Bis(octyloxy)benzamido)benzoyl)oxy)-N,N-diethyl-N-methylethan-1-aminium bromide], the MIC in the assay on S. aureus and with A. baumannii was over 30 µg/mL throughout.

For the compound `CCCCCCCCOc1cc(OCCCCCCCC)cc(C(=O)Nc2ccc(C(=O)OCC[N+](C)(CC)CC)cc2)c1.[Br-]` [Compound 18, 2-((4-(3,5-Bis(octyloxy)benzamido)benzoyl)oxy)-N,N-diethyl-N-methylethan-1-aminium bromide], the MIC in the assay with S. aureus and in the assay on A. baumannii was over 30 µg/mL in each case.

For `CCCCOc1ccccc1C(=O)Nc1ccc(C(=O)OCC[N+](C)(CC)CC)cc1.[Br-]` [Compound 19, 2-((4-(2-Butoxybenzamido)benzoyl)oxy)-N,N-diethyl-N-methylethan-1-aminium bromide], the MIC in the assay on S. aureus and in the assay with A. baumannii was over 30 µg/mL throughout.

Regarding `CCCCCOc1ccccc1C(=O)Nc1ccc(C(=O)OCC[N+](C)(CC)CC)cc1.[Br-]` [Compound 20, N,N-Diethyl-N-methyl-2-((4-(2-(pentyloxy)benzamido)benzoyl)oxy)ethan-1-aminium bromide], the MIC in the assay on S. aureus and in the assay with A. baumannii was over 30 µg/mL throughout.

As to `CCCCCCOc1ccccc1C(=O)Nc1ccc(C(=O)OCC[N+](C)(CC)CC)cc1.[Br-]` [Compound 21, N,N-Diethyl-2-((4-(2-(hexyloxy)benzamido)benzoyl)oxy)-N-methylethan-1-aminium bromide], the MIC with S. aureus was 3 to 30 µg/mL; with A. baumannii it was over 30 µg/mL.

Regarding `CCCCCCCOc1ccccc1C(=O)Nc1ccc(C(=O)OCC[N+](C)(CC)CC)cc1.[Br-]` [Compound 22, N,N-Diethyl-2-((4-(2-(heptyloxy)benzamido)benzoyl)oxy)-N-methylethan-1-aminium bromide], the MIC was 3 to 30 µg/mL in the assay with S. aureus and over 30 µg/mL with A. baumannii.

`CCCCCCCCCOc1ccccc1C(=O)Nc1ccc(C(=O)OCC[N+](C)(CC)CC)cc1.[Br-]` [Compound 23, N,N-Diethyl-N-methyl-2-((4-(2-(nonyloxy)benzamido)benzoyl)oxy)ethan-1-aminium bromide]: the MIC in the assay with S. aureus and with A. baumannii was 3 to 30 µg/mL in each case.

For `CCCCCCCCCCOc1ccccc1C(=O)Nc1ccc(C(=O)OCC[N+](C)(CC)CC)cc1.[Br-]` [Compound 24, 2-((4-(2-(Decyloxy)benzamido)benzoyl)oxy)-N,N-diethyl-N-methylethan-1-aminium bromide], the figures for the MIC in the assay on S. aureus and in the assay with A. baumannii were 3 to 30 µg/mL and over 30 µg/mL, respectively.

With `CCCCCCCCCCCOc1ccccc1C(=O)Nc1ccc(C(=O)OCC[N+](C)(CC)CC)cc1.[Br-]` [Compound 25, N,N-Diethyl-N-methyl-2-((4-(2-(undecyloxy)benzamido)benzoyl)oxy)ethan-1-aminium bromide], the MIC in the assay on S. aureus was 3 to 30 µg/mL; in the assay with A. baumannii, over 30 µg/mL.

Regarding `CCCCCCCCCCCCOc1ccccc1C(=O)Nc1ccc(C(=O)OCC[N+](C)(CC)CC)cc1.[Br-]` [Compound 26, 2-((4-(2-(Dodecyloxy)benzamido)benzoyl)oxy)-N,N-diethyl-N-methylethan-1-aminium bromide], the values for the MIC in the assay on S. aureus and with A. baumannii were 3 to 30 µg/mL and over 30 µg/mL, respectively.

As for `CCCCCCCCCCCCCOc1ccccc1C(=O)Nc1ccc(C(=O)OCC[N+](C)(CC)CC)cc1.[Br-]` [Compound 27, N,N-Diethyl-N-methyl-2-((4-(2-(tridecyloxy)benzamido)benzoyl)oxy)ethan-1-aminium bromide], the MIC in the assay on S. aureus was under 3 µg/mL; in the assay on A. baumannii, over 30 µg/mL.

In the case of `CCCCCCCCCCCCCCOc1ccccc1C(=O)Nc1ccc(C(=O)OCC[N+](C)(CC)CC)cc1.[Br-]` [Compound 28, N,N-Diethyl-N-methyl-2-((4-(2-(tetradecyloxy)benzamido)benzoyl)oxy)ethan-1-aminium bromide], the values for the MIC in the assay on S. aureus and in the assay with A. baumannii were 3 to 30 µg/mL and over 30 µg/mL, respectively.

Consider `CCCCCCCCOc1ccccc1C(=O)Nc1ccc(C(=O)OCC[N+](CC)(CC)CC)cc1.[Br-]` [Compound 29, N,N,N-Triethyl-2-((4-(2-(octyloxy)benzamido)benzoyl)oxy)ethan-1-aminium bromide], for which the MIC is 3 to 30 µg/mL in the assay with S. aureus and over 30 µg/mL in the assay with A. baumannii.

As to `CCCCCCCCC[N+](CC)(CC)CCOC(=O)c1ccc(NC(=O)c2ccccc2OCCCCCCCC)cc1.[Br-]` [Compound 30, N,N-Diethyl-N-(2-((4-(2-(octyloxy)benzamido)benzoyl)oxy)ethyl)nonan-1-aminium bromide], the MIC in the assay with S. aureus was 3 to 30 µg/mL; with A. baumannii, over 30 µg/mL.

As to `CCCCCCCCOc1ccc(C(=O)Nc2ccc(C(=O)OCC[N+](C)(CC)CC)cc2)cc1.[Br-]` [Compound 31, N,N-Diethyl-N-methyl-2-((4-(4-(octyloxy)benzamido)benzoyl)oxy)ethan-1-aminium bromide], the MIC with S. aureus and with A. baumannii was over 30 µg/mL each time.

In the case of `CCCCCCCCOc1cccc(C(=O)Nc2ccc(C(=O)OCC[N+](C)(CC)CC)cc2)c1.[Br-]` [Compound 32, N,N-Diethyl-N-methyl-2-((4-(3-(octyloxy)benzamido)benzoyl)oxy)ethan-1-aminium bromide], the figures for the MIC with S. aureus and with A. baumannii were 3 to 30 µg/mL and over 30 µg/mL, respectively.

On to `CCCCCCCCOc1ccccc1C(=O)Nc1ccc(C(=O)OCC[N+](CC)(CC)CCC)cc1.[Br-]` [Compound 33, N,N-Diethyl-N-(2-((4-(2-(octyloxy)benzamido)benzoyl)oxy)ethyl)propan-1-aminium bromide], for which the MIC with S. aureus is under 3 µg/mL; with A. baumannii, 3 to 30 µg/mL.

For `CCCCCCCCOc1ccccc1C(=O)Nc1ccc(C(=O)OCC[N+](CC)(CC)CCCC)cc1.[Br-]` [Compound 34, N,N-Diethyl-N-(2-((4-(2-(octyloxy)benzamido)benzoyl)oxy)ethyl)butan-1-aminium bromide], the figures for the MIC in the assay on S. aureus and with A. baumannii were under 3 µg/mL and 3 to 30 µg/mL, respectively.

On to `CCCCCCCCOc1ccccc1C(=O)Nc1ccc(C(=O)OCC[N+](CC)(CC)CCCCC)cc1.[Br-]` [Compound 35, N,N-Diethyl-N-(2-((4-(2-(octyloxy)benzamido)benzoyl)oxy)ethyl)pentan-1-aminium bromide], for which the MIC is under 3 µg/mL with S. aureus and 3 to 30 µg/mL in the assay on A. baumannii.

For the compound `CCCCCCCCOc1ccccc1C(=O)Nc1ccc(C(=O)OCC[N+](CC)(CC)CCCCCC)cc1.[Br-]` [Compound 36, N,N-Diethyl-N-(2-((4-(2-(octyloxy)benzamido)benzoyl)oxy)ethyl)hexan-1-aminium bromide], the MIC in the assay with S. aureus is under 3 µg/mL; in the assay on A. baumannii, 3 to 30 µg/mL.

As to `CCCCCCCCOc1ccccc1C(=O)Nc1ccc(C(=O)OCC[N+](CC)(CC)CCCCCCC)cc1.[Br-]` [Compound 37, N,N-Diethyl-N-(2-((4-(2-(octyloxy)benzamido)benzoyl)oxy)ethyl)heptan-1-aminium bromide], the MIC with S. aureus is under 3 µg/mL; in the assay with A. baumannii it was 3 to 30 µg/mL.

On to `CCCCCCCCOc1ccccc1C(=O)Nc1ccc(C(=O)OCC[N+](CC)(CC)CCCCCCCC)cc1.[Br-]` [Compound 38, N,N-Diethyl-N-(2-((4-(2-(octyloxy)benzamido)benzoyl)oxy)ethyl)octan-1-aminium bromide], for which the MIC was under 3 µg/mL in the assay with S. aureus and over 30 µg/mL with A. baumannii.

The record behind these values is patent US11952330B2, “Antibiotic ammonium compounds and methods for the treatment of bacterial infections” (priority 2019, dated 2024).
